Tested on: HepG2 ERK1/2 phosphorylation, Western blot imaging
Test: ERK1/2 phosphorylation increase by Trib1 inducers, late-stage follow-up, mechanism study for Trib1 inducer project, cell-based, HepG2, Western blot imaging, cherry-pick (AID 1053148)
Conditions: hits give high values

For `CN1C(=O)c2cc(NC(=O)c3ccc(C(F)(F)F)cc3)ccc2OC[C@@H]2O[C@H](CC(=O)NC3Cc4ccccc4C3)CC[C@@H]21`, the fold induction x10 was 2.

Reference: PubChem BioAssay AID1053148 (Broad Institute, 2014)
